Measured values as given in article PMC6934700, “Structure-Guided Design of a Fluorescent Probe for the Visualization of FtsZ in Clinically Important Gram-Positive and Gram-Negative Bacterial Pathogens” (Scientific Reports, 2019).
Where two headings read alike, the source gives them in different places.

Experiments:
P. aeruginosa (PaFtsZ) = target: T1, P. aeruginosa (PaFtsZ) (Pseudomonas aeruginosa, UniProt P47204); assay: Fluorescence anisotropy binding of BOFP to PaFtsZ; settings: for Kd: 50 mM Tris-HCl (pH 7.6), 50 mM KCl, 0.1 µM BOFP
T1 construct: 6xHis (C); made in house; host or cells: E. coli BLR (DE3), pET-22b(+)
T1 sequence (P47204 1-394): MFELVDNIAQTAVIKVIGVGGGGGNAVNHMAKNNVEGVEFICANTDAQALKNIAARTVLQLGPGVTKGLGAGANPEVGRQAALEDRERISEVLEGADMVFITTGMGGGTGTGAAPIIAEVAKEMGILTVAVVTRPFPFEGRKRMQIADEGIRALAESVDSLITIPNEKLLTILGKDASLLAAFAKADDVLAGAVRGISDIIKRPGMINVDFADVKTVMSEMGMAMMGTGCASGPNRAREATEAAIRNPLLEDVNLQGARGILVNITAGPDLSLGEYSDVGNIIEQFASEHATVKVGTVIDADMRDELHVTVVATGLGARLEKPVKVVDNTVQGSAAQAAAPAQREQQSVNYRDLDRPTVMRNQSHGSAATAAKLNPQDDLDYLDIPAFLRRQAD
Experimental: (§1) Fluorescence anisotropy experiments were performed using an AVIV model ATF105 spectrofluorometer at 15, 25, or 37 °C. In these experiments, bandwidths were set to 4 nm in both the excitation and emission directions, with the excitation and emission wavelengths being set at 488 nm and 510 nm, respectively. BOFP (0.1 µM) was titrated with increasing concentrations (ranging from 0 to 12 µM) of FtsZ in 120 µL of buffer containing 50 mM Tris-HCl (pH 7.6) and 50 mM KCl. After each protein addition, the samples were equilibrated for 3 minutes, whereupon the fluorescence anisotropy was measured.
(§2) In this equation, r0 is the anisotropy of the protein-free compound, r∞ is the anisotropy of the compound in the presence of an infinite concentration of FtsZ, [C]tot is the total concentration of the compound, and [P]tot is the total concentration of protein with each addition. These analyses yielded the equilibrium dissociation constant (Kd) for each binding reaction.
(§3) The binding free energy (ΔG) at temperature T was derived from the corresponding Kd value determined at T using the following relationship:2 ΔG=−RTln(1/Kd)
(§4) The binding enthalpy (ΔH) and entropy (ΔS) were derived from linear fits of the ln(1/Kd) vs. 1/T plots shown in Figs. 3f and 5e using the following relationship:3 ln(1/Kd)=−ΔH/R(1/T)+ΔS/R
In comparative control experiments, the anisotropy of 0.1 µM BODIPY FL-COOH or BOFP alone or in the presence of SaFtsZ (10 µM), SpyFtsZ (10 µM), KpFtsZ (2 µM), or PaFtsZ (2 µM) was measured at 37 °C in the same buffer described above.

E. faecium (EfmFtsZ) = target: T2, E. faecium (EfmFtsZ) (Enterococcus faecium, UniProt Q3Y2I1); assay: Fluorescence anisotropy binding of BOFP to EfmFtsZ; settings: for Kd: 50 mM Tris-HCl (pH 7.6), 50 mM KCl, 0.1 µM BOFP
T2 sequence (Q3Y2I1 1-413): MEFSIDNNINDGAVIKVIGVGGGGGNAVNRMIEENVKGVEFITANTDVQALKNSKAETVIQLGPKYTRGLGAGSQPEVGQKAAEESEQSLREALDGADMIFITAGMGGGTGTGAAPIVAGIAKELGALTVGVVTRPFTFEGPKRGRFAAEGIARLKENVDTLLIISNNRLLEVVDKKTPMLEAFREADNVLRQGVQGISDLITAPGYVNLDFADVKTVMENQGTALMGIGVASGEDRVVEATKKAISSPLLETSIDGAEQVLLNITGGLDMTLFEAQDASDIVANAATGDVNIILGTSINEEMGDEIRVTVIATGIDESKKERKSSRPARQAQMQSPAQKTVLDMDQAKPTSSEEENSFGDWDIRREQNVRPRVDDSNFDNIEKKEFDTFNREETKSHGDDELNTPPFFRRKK
Experimental: as §1, §2, §3, §4

S. agalactiae (SagFtsZ) = target: T3, S. agalactiae (SagFtsZ) (Streptococcus agalactiae, UniProt Q8E183); assay: Fluorescence anisotropy binding of BOFP to SagFtsZ; settings: for Kd: 50 mM Tris-HCl (pH 7.6), 50 mM KCl, 0.1 µM BOFP
T3 sequence (Q8E183 1-426): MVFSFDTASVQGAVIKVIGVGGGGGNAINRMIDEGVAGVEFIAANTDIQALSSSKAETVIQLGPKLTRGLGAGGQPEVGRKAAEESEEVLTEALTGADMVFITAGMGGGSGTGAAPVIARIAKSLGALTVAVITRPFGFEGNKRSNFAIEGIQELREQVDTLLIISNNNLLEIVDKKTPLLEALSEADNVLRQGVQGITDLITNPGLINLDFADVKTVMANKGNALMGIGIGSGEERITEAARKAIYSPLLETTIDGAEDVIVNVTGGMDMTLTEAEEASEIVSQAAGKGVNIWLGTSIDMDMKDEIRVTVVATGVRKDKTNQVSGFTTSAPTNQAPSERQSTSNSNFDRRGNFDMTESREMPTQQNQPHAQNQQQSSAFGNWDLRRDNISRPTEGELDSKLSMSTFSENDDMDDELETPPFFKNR
Experimental: as §1, §2, §3, §4

MRSA LAC FtsZ-mCherry = assay: Colocalization of BOFP labeling with induced FtsZ-mCherry fusion protein; type: cell-based, Staphylococcus aureus; settings: 1 µg/mL BOFP for 5 minutes; vehicle-treated and 1-treated cells
Experimental: All differential interference contrast (DIC) and fluorescence microscopy experiments were conducted using an Olympus BX50 microscope equipped with an X-cite Exacte 200 W mercury lamp, a 100× Olympus UPLSAPO oil immersion objective (1.40 aperture), as well as both Chroma ET-EGFP (FITC/Cy2) and ET mCherry, Texas Red filters. Images were captured using a QImaging Retiga R3 charge-coupled device (CCD) camera and the Ocular-Version 2.0 software package (QImaging).
To visualize the impact of treating MRSA LAC FtsZ-mCherry with 1, cells were grown to log-phase in CAMH broth and diluted to an OD600 of 0.1. […] Following this treatment, 1–5 mL of each culture was centrifuged at 15,000 × g for 1 minute and washed twice with 1 mL of PBS. The resulting cell pellets were further processed and labeled with BOFP as described above for the Gram-positive bacterial strains.

[1] = from linear fit of ln(1/Kd) vs. 1/T

Molecule `CC1=CC(C)=[N+]2C1=Cc1ccc(CCC(=O)OCC(Oc3ccc(F)c(C(N)=O)c3F)c3nc(-c4ccc(C(F)(F)F)cc4)c(Br)o3)n1[B-]2(F)F` (centres unmarked) [BOFP] has a Kd (P. aeruginosa (PaFtsZ); 15 °C, read-out: Kd - 15 °C) of 230 ± 20 nM, a Kd (P. aeruginosa (PaFtsZ); 25 °C, read-out: Kd - 25 °C) of 360 ± 60 nM and a Kd (P. aeruginosa (PaFtsZ); 37 °C, read-out: Kd - 37 °C) of 580 ± 60 nM. It also gave a ΔG (P. aeruginosa (PaFtsZ); calculated at T = 310 K (37 °C) from Kd) of -8.8 ± 0.1 kcal/mol, a ΔH (P. aeruginosa (PaFtsZ); [1]) of -7.7 ± 0.2 kcal/mol and a Kd (E. faecium (EfmFtsZ); 15 °C, read-out: Kd - 15 °C) of 2500 ± 140 nM. For the same molecule, the Kd (E. faecium (EfmFtsZ); 25 °C, read-out: Kd - 25 °C) was 2620 ± 80 nM, the Kd (E. faecium (EfmFtsZ); 37 °C, read-out: Kd - 37 °C) was 3140 ± 220 nM and the ΔH (E. faecium (EfmFtsZ); [1]) was -1.9 ± 0.6 kcal/mol. The Kd (S. agalactiae (SagFtsZ); 15 °C, read-out: Kd - 15 °C) was 620 ± 50 nM, the Kd (S. agalactiae (SagFtsZ); 25 °C, read-out: Kd - 25 °C) was 1020 ± 90 nM and the Kd (S. agalactiae (SagFtsZ); 37 °C, read-out: Kd - 37 °C) was 1310 ± 40 nM. The ΔH (S. agalactiae (SagFtsZ); [1]) was -6.6 ± 0.6 kcal/mol and the “Colocalization of BOFP green fluorescence with FtsZ-mCherry red fluorescence” value (MRSA LAC FtsZ-mCherry) was “colocalizes with the red fluorescence”.
